Source: patent US12721823B2, “Methods and compositions for treatment of low circulating testosterone conditions” (University of Florida Research Foundation, Inc., priority 2021, dated 2026)

Tests used:
Type in all cases: in vivo, rat
KCC2 = assay: Immunofluorescence of cell surface KCC2 expression in the PVN of the hypothalamus; conditions: G1 male rats; 1 h after last exposure on P60; vs control
Procedure: Rats were anesthetized with sevoflurane and transcardially perfused with saline, followed by 4% paraformaldehyde (PFA) in 0.1 M phosphate buffer. The brains were collected and fixed in the 4% PFA overnight and then dehydrated in 30% sucrose solution in PBS at 4° C. for 2 days. The brains were cut into 18-um-thick coronal sections using a cryostat. After blocking with 10% norm goat serum for 1 h at room temperature, the slices were incubated with the primary antibody (rabbit anti-KCC2, 1:500; MilliporeSigma, Burlington, MA) in 10% norm goat serum at 4° C. overnight. After washing with PBS for 3×5 min, the slices were exposed to the secondary antibody, Alexafluor 549 goat anti-rabbit (Invitrogen, Carlsbad, CA). […] The immunofluorescence intensity of the KCC2-immunoreactive cells was measured using ImageJ software [National Institutes of Health (NIH)]. Three images from the PVN of the hypothalamus of each animal were taken and the average intensity values were calculated to use for statistical analysis. […] (FIGS. 2C-2F) Representative confocal images and quantitative analysis of the KCC2 immunoreactivity in the paraventricular nucleus (PVN) of the hypothalamus of the control and sevoflurane-exposed male (FIGS. 2C, 2E) and female (FIGS. 2D, 2F) rats. […]

Sprague-Dawley rats = assay: Prepulse inhibition (PPI) of startle; conditions: for startle amplitudes: all experimental groups; for PPI of startle at PP3: vs offspring of unexposed parents
Excerpt: Sixty-four G1 rats (32 control and 32 sevoflurane exposed) and 122 G2 rats, which were not exposed to sevoflurane anesthesia and were subjected to animal facility rearing only, were studied. The G1 rats were sequentially evaluated in the EPM starting on ~P125, PPI of the acoustic startle response on ~P135 and MWM starting ~on P145 (FIG. 1). One half of these animals were sacrificed on ≥P160 to collect trunk blood, brain and testis and ovarian tissues for further analyses. The rest of these animals were physically restrained for 30 min on ≥P160 to measure corticosterone responses, followed by collection of tissue samples (as above) for further analyses. The G2 rats were evaluated in the EPM starting on P60 and PPI of startle on P70 (FIG. 1). One half of these animals were sacrificed on ≥P95 to collect trunk blood and brain tissue samples for further analyses, and the rest of these animals were tested for the corticosterone responses to physical restraint for 30 min on ≥P95 before collecting the trunk blood and brain tissue samples.
The PPI of startle tests were performed using a SR-Lab startle apparatus (San Diego Instruments, San Diego, CA) as previously described.^5-7 The % PPI for each prepulse level was calculated using the following formula: % PPI=100×[(pulse alone)−(prepulse+pulse)]/pulse alone. Data were collected as Vmax amplitude.

[1] = tested on: Sprague-Dawley F0 male rats; assay: Long-term serum testosterone after SEVO with or without surgery and TBI; conditions: young adult F0 male rats exposed to SEVO; FIG. 11A
Procedure: The Sprague-Dawley F0 male rats in the TBI group had SEVO exposure for 40 min to conduct a craniectomy and injury hub implantation on P60. After 60 min of recovery, they were reanesthetized with SEVO for 3 min to induce moderate TBI using a midline fluid percussion injury (FPI) model. The TBI+SEVO group had additional exposure to SEVO for 3 h on P62, P64, and P66. These subsequent exposures to SEVO, which may be needed to treat accompanying conditions, such as orthopedic, abdominal, or thoracic injuries, were used to study whether the effects of SEVO, surgery, and TBI interact to induce their effects. The Sham group had all exposures to SEVO and craniectomy but not TBI. The SEVO-SEVO group had all exposures to SEVO only. The control group had none of these procedures, except being placed in a new cage for an equivalent duration and number of times. A subset of F0 male rats was sacrificed on P66 1 h after the last exposure to SEVO for 3 h or at equivalent timepoints to collect blood to study acute neuroendocrine effects (FIG. 11A). The serum corticosterone levels before and after physical restraint for 30 min were measured ion P140. Ten days after completing the in vivo studies, the same rats were sacrificed and trunk blood samples were collected to measure serum levels of testosterone.

PPI of startle responses (Sprague-Dawley rats; G1 male rats, prepulse intensity of 3 dB, vs control): impaired PPI of startle responses
startle amplitudes (Sprague-Dawley rats; G2 female rats): similar
PPI of startle (Sprague-Dawley rats; G2 female rats, parental sevoflurane exposure): no significant treatment effect
startle amplitudes (Sprague-Dawley rats; G2 male rats): similar
PPI of startle at PP3 (Sprague-Dawley rats; G2 males of both exposed parents): reduced PPI of startle
PPI of startle at PP3 (Sprague-Dawley rats; G2 males of control fathers and exposed mothers): reduced PPI of startle
SMILES: FCOC(C(F)(F)F)C(F)(F)F [sevoflurane, 1,1,1,3,3,3-hexafluoro-2-(fluoromethoxy)propane]
cell surface KCC2 expression (KCC2 density) in the PVN of the hypothalamus (KCC2): reductions in KCC2 density
serum levels of testosterone [1]: long-term increase
